From patent US12338263B2, “Antibacterial aminoglycoside derivatives” (priority 2019, dated 2025)
In brackets after ≈: the same amount, converted by molar mass.

Key:
E. coli ATCC 25922 = assay: Antibacterial effect (MIC), micro-liquid dilution method (CLSI); format: cell-based; settings: Escherichia coli, ATCC25922
Experimental: (§1) Three strains Enterobacteriaceae E. coli ATCC 25922, E. coli ATCC BAA-2523, K. pneumonia ATCC BAA-1705 were used to determine the Minimum Inhibitory Concentration (MIC) of each compound by the micro-liquid dilution method according to the requirements of the Institute of Clinical and Laboratory Standard (CLSI). 2-fold series diluted compounds (with a final concentration range […]) were added to a round bottom 96-well plate (Catalog #3788, Corning). A single clone of fresh bacteria on the plate of Mueller Hinton II Agar (MHA, Cat. No. 211438, BD BBL™) after overnight culture was picked and suspended in sterile saline to adjust the concentration to 1×10^8 CFU/mL, and then diluted to 5×10^5 CFU/mL by Cation-Adjusted Mueller Hinton II Broth (MHB, Catalog #212332, BD BBL™), 100 μL of which was added to the round bottom 96-well plate containing the drug. The plate was inverted and incubated at 37° C. for 20-24 hours, and the MIC value was read. The lowest drug concentration that inhibits bacterial growth was defined as MIC.

E. coli ATCC BAA-2523 = assay: as above; format: cell-based; settings: Escherichia coli, ATCCBAA2523
Experimental: as §1

[1] = system: K. pneumoniae ATCC BAA-1705; assay: as above; format: cell-based; settings: Klebsiella pneumoniae, ATCCBAA1705
Experimental: as §1

[2] = system: Klebsiella pneumoniae ATCC-BAA-1705; assay: Drug efficacy in mice (mouse pneumonia model); format: in vivo; settings: CD-1 mice, read at 24 h, FIG. 2
Experimental: 21 CD-1 mice were divided into 7 cages, 3 mice per cage, and were injected intraperitoneally with the immunosuppressant cyclophosphamide (150 mpk) on the 4th day.
On the first day, 7 cages of mice were injected intraperitoneally again with the immunosuppressant cyclophosphamide (100 mpk). The strain Kpn ATCC-BAA-1705 (Klebsiella pneumoniae ATCC-BAA-1705) was recovered on a MHA plate. The recovered colonies were picked and dissolved in saline to prepare Kpn ATCC-BAA-1705 bacterial solution with a concentration of 4.00E+08 CFU/mL for later use in mouse lung infection. The amount of bacterial solution infected in the lung of experimental mice was 50 μL/mouse, that is, the inoculation amount was 2.00E+07 CFU/mouse. At 2 h and 24 h infection, the lung tissue of the mice in control group was taken and placed in 5 mL saline, homogenized, and dotted on a plate with gradient dilution.
The specific administration of mice was as follows: • (1) 2 h after infection: At the end of 2 h after infection, the lung tissue of the mice in the first cage was taken and placed in 5 mL saline, homogenized, and dotted on a plate with gradient dilution, two duplications for each mouse. The amount of bacteria loaded in the lung tissue of the mouse was counted. Mice in the third and fourth cages were injected respectively with 30 mpk and 10 mpk compound Plazomicin subcutaneously, mice in the fifth and sixth cages were injected respectively with 30 mpk and 10 mpk compound subcutaneously, and mice in the seventh cage were injected with 100 mpk meropenem subcutaneously. • (2) 10 h after infection: Mice in the third and fourth cages were injected respectively with 30 mpk and 10 mpk plazomicin subcutaneously, mice in the fifth and sixth cages were injected respectively with 30 mpk and 10 mpk compound 1 subcutaneously, and mice in the seventh cage were injected with 100 mpk meropenem subcutaneously. At the end of 24 h infection, the lung tissue of the mice in the second to seventh cages was taken and placed in 5 mL saline, homogenized, and dotted on a plate with gradient dilution, two duplications for each mouse. The amount of bacteria carried in the lung tissue of the mouse was counted, and the experimental results were summarized and shown in FIG. 2.

cochlear hair cells = assay: Auditory safety: hair cell staining and counting on the basilar membrane of the cochlea; format: in vivo, guinea pigs
Experimental: Healthy adult guinea pigs (150-250 g) were employed as the research objects, and were randomly divided into saline control group, gentamicin group, compound Plazomicin group and Compound 1 group, with 8 animals in each group. Subcutaneous administration is used, and the following assays were carried out during and after the administration for 14 consecutive days: • 1. To analyze the effects of different drugs on the auditory function of guinea pigs, the compound action potential (CAP) of animals was recorded on the 14th day (29th day, i.e., 4 weeks) after administration. The results obtained were analyzed and the changes of the threshold shift, amplitude, latency and other indicators among different treatment groups were compared. • 2. After the different groups of animals were processed and the auditory function data thereof were collected, the cochlea of the animals was taken out for fixation and staining. Surface preparation of basilar membrane of the cochlea on one side was performed to count the loss of hair cells so as to make a cochlea map, and the cochlea on the other side was decalcified and frozen sectioned. The density of spiral ganglion neurons was counted and compared among groups. Research Results: 1. Administration Method and Treatment
Gentamicin from Dalian Meilun Biotechnology Co., Ltd., and Plazomicin and Compound 1 from WuXi AppTec (WuHan) Co., Ltd. are used, the solution of which were prepared just before use each time by using saline for dissolution to the concentration of 50 mg/mL, and the injection dose was 100 mg/kg body weight. Method: subcutaneous injection, and confirmation of no liquid leakage after each injection.
In order to compare the effects of different drugs on hair cells, hair cell staining and counting on the whole basilar membrane of the cochlea are performed. […] The Plazomicin group had 11.2-28.1% loss of outer hair cells in the high frequency (70-100% from the apical turn) and 16.7-24.2% loss of the outer hair cells at the beginning of the apical turn (10-20%). However, in the Compound 1 group, the loss of outer hair cells only occurred in the low-frequency region (from the top turn −40%), in which the loss rate of outer hair cells was about 2.5-11%, and the outer hair cells were relatively intact in the high frequency area (see FIG. 6 B).

## CN[C@@H]1[C@@H](O)[C@@H](O[C@@H]2[C@@H](O)[C@H](O[C@H]3OC(CNCCOCCONC(=N)N)=CC[C@H]3N)[C@@H](N)C[C@H]2NC(=O)[C@@H](O)CCN)OC[C@]1(C)O [Compound 1]
E. coli ATCC 25922
  MIC: 2 µM (≈ 1.39 µg/mL)
E. coli ATCC BAA-2523
  MIC: 2 µM (≈ 1.39 µg/mL)
[1]
  MIC: 4 µM (≈ 2.78 µg/mL)
[2]; 10 mpk and 30 mpk subcutaneously 2 h and 10 h after infection
  in vivo activity in lung infection model (bacteria in lung tissue): good in vivo activity
[2]; 10 mpk subcutaneously 2 h and 10 h after infection
  efficacy at a dose of 10 mpk in lung infection model: equivalent to that of Plazomicin at a dose of 30 mpk
[2]; subcutaneously 2 h and 10 h after infection
  efficacy compared with Plazomicin in lung infection model: better than that of Plazomicin
Cochlear hair cells; guinea pig, in vivo, 29 day
  loss rate of outer hair cells: 2.5-11%
Cochlear hair cells; guinea pig, in vivo, sc, 100 mg/kg
  damage to inner hair cells (overall): almost undamaged
Cochlear hair cells; guinea pigs, 100 mg/kg subcutaneous 14 days
  hair cell toxicity (overall): significantly lower than that of the Gentamicin and the Plazomicin
